Calls of active or inactive are those of the source. The calls are words filed in the database; no cut-off is given here.
How the values were obtained:
A549 [1] = assay: Inhibition of TGF-beta1-induced cell invasion in human A549 cells at 2.5 to 3 uM measured after 48 hrs by Matrigel invasion assay; assay type: functional, cell-based
A549 [2] = assay: Antiproliferative activity against human A549 cells assessed as cell survival rate at 0.5 uM incubated for 24 hrs by CCK8 assay; assay type: functional; conditions: A549, 24 h, read-out: Survival
A549 [3] = assay: Antiproliferative activity against human A549 cells assessed as cell survival rate at 1 uM incubated for 24 hrs by CCK8 assay; assay type: functional; conditions: A549, 24 h, read-out: Survival
A549 [4] = assay: Antiproliferative activity against human A549 cells assessed as cell survival rate at 2 uM incubated for 24 hrs by CCK8 assay; assay type: functional; conditions: A549, 24 h, read-out: Survival
A549 [5] = assay: Antiproliferative activity against human A549 cells assessed as cell survival rate at 2.5 uM incubated for 24 hrs by CCK8 assay; assay type: functional; conditions: A549, 24 h, read-out: Survival
A549 [6] = assay: Antiproliferative activity against human A549 cells assessed as cell survival rate at 3 uM incubated for 24 hrs by CCK8 assay; assay type: functional; conditions: A549, 24 h, read-out: Survival
A549 [7] = assay: Antiproliferative activity against human A549 cells assessed as inhibition of cell growth at 4 uM incubated for 24 to 48 hrs by CCK8 assay; assay type: functional, cell-based
A549 [8] = assay: Inhibition of TGF-beta1-induced epithelial-mesenchymal transition in human A549 cells assessed as suppression of cell elongation and spindle like shapes pre-incubated for 2 hrs at 2.5 to 3 uM for 2 hrs followed by TGF-beta1 stimulation for 24 hrs; assay type: functional, cell-based
A549 [9] = assay: Inhibition of TGF-beta1-induced epithelial-mesenchymal transition in human A549 cells assessed as increase in E-cadherin expression pre-incubated for 2 hrs at 2.5 to 3 uM for 2 hrs followed by TGF-beta1 stimulation for 24 hrs by Western blot method; assay type: functional, cell-based
A549 [10] = assay: Inhibition of TGF-beta1-induced epithelial-mesenchymal transition in human A549 cells assessed as decrease in N-cadherin expression pre-incubated for 2 hrs at 2.5 to 3 uM for 2 hrs followed by TGF-beta1 stimulation for 24 hrs by Western blot method; assay type: functional, cell-based
A549 [11] = assay: Inhibition of TGF-beta1-induced epithelial-mesenchymal transition in human A549 cells assessed as increase in E-cadherin gene expression at 2.5 to 3 uM for 2 hrs followed by TGF-beta1 stimulation for 24 hrs by qRT-PCR method; assay type: functional, cell-based
A549 [12] = assay: Inhibition of TGF-beta1-induced epithelial-mesenchymal transition in human A549 cells assessed as reduction in N-cadherin gene expression at 2.5 to 3 uM for 2 hrs followed by TGF-beta1 stimulation for 24 hrs by qRT-PCR method; assay type: functional, cell-based
A549 [13] = assay: Inhibition of TGF-beta1-induced epithelial-mesenchymal transition in human A549 cells assessed as reduction in SNAI2 gene expression at 2.5 to 3 uM for 2 hrs followed by TGF-beta1 stimulation for 24 hrs by qRT-PCR method; assay type: functional, cell-based
A549 [14] = assay: Inhibition of TGF-beta1-induced epithelial-mesenchymal transition in human A549 cells assessed as reduction in vimentin gene expression at 2.5 to 3 uM for 2 hrs followed by TGF-beta1 stimulation for 24 hrs by qRT-PCR method; assay type: functional, cell-based
A549 [15] = assay: Inhibition of TGF-beta1-induced epithelial-mesenchymal transition in human A549 cells assessed as reduction in Smad2 gene expression at 2.5 to 3 uM for 2 hrs followed by TGF-beta1 stimulation for 24 hrs by qRT-PCR method; assay type: functional, cell-based
A549 [16] = assay: Inhibition of TGF-beta1-induced epithelial-mesenchymal transition in human A549 cells assessed as reduction in TGFbeta gene expression at 2.5 to 3 uM for 2 hrs followed by TGF-beta1 stimulation for 24 hrs by qRT-PCR method; assay type: functional, cell-based
A549 [17] = assay: Inhibition of TGF-beta1-induced epithelial-mesenchymal transition in human A549 cells assessed as reduction in TGFbetaR1 gene expression at 2.5 to 3 uM for 2 hrs followed by TGF-beta1 stimulation for 24 hrs by qRT-PCR method; assay type: functional, cell-based
A549 [18] = assay: Inhibition of TGF-beta1-induced epithelial-mesenchymal transition in human A549 cells assessed as reduction in Snail gene expression at 2.5 to 3 uM for 2 hrs followed by TGF-beta1 stimulation for 24 hrs by qRT-PCR method; assay type: functional, cell-based
A549 [19] = assay: Inhibition of TGF-beta1-induced epithelial-mesenchymal transition in human A549 cells assessed as reduction in Snail protein expression at 2.5 to 3 uM for 2 hrs followed by TGF-beta1 stimulation for 24 hrs by Western blot method; assay type: functional, cell-based
A549 [20] = assay: Inhibition of TGF-beta1-induced cell migration in human A549 cells at 2.5 to 3 uM treated along with TGF-beta1 stimulation following cell layer cell layer scratching measured after 24 hrs; assay type: functional, cell-based
A549 [21] = assay: Inhibition of TGF-beta1-induced MMP2 gene expression in human A549 cells at 2.5 to 3 uM for 2 hrs followed by TGF-beta1 stimulation for 24 hrs by qRT-PCR method; assay type: functional, cell-based
A549 [22] = assay: Inhibition of TGF-beta1-induced MMP9 gene expression in human A549 cells at 2.5 to 3 uM for 2 hrs followed by TGF-beta1 stimulation for 24 hrs by qRT-PCR method; assay type: functional, cell-based
[23] = biological target: 72 kDa type IV collagenase (Homo sapiens) (UniProt P08253); assay: Inhibition of TGF-beta1-induced MMP2 activity in human A549 cells at 2.5 to 3 uM for 2 hrs followed by TGF-beta1 stimulation for 24 hrs by gelatin zymography; assay type: cell-based
[24] = biological target: Matrix metalloproteinase-9 (Homo sapiens) (UniProt P14780); assay: Inhibition of TGF-beta1-induced MMP9 activity in human A549 cells at 2.5 to 3 uM for 2 hrs followed by TGF-beta1 stimulation for 24 hrs by gelatin zymography; assay type: cell-based
[25] = biological target: Mothers against decapentaplegic homolog 2 (Homo sapiens) (UniProt Q15796); assay: Inhibition of TGF-beta1-induced Smad2 phosphorylation in human A549 cells at 2.5 to 3 uM for 2 hrs followed by TGF-beta1 stimulation for 24 hrs by Western blot method; assay type: cell-based
[26] = biological target: MAP kinase p38 (Homo sapiens) (UniProt O15264+Q15759+Q16539+P53778); assay: Inhibition of TGF-beta1-induced p38 phosphorylation in human A549 cells at 2.5 to 3 uM for 2 hrs followed by TGF-beta1 stimulation for 24 hrs by Western blot method; assay type: cell-based

Sequence of Matrix metalloproteinase-9 (Homo sapiens) (P14780 whole entry): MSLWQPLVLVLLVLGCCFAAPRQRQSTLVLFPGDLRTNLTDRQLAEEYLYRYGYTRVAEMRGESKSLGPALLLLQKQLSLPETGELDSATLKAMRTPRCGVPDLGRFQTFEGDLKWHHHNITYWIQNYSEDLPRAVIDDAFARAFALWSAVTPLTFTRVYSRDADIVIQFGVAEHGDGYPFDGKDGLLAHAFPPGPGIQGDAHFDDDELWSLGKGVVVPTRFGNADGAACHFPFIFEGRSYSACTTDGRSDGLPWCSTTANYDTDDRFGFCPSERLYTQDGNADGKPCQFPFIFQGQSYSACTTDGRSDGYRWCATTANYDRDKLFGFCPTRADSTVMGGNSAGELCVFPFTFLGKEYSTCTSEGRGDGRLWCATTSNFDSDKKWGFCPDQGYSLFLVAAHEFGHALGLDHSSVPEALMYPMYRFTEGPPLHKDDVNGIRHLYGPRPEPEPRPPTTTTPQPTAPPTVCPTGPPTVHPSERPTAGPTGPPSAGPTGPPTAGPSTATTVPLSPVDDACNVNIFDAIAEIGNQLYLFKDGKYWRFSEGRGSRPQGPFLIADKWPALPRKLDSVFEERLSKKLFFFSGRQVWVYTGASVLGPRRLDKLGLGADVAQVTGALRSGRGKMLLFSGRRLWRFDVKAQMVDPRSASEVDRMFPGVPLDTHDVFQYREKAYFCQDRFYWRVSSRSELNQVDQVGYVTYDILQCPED
Sequence of 72 kDa type IV collagenase (Homo sapiens) (P08253 110-660 limits assumed): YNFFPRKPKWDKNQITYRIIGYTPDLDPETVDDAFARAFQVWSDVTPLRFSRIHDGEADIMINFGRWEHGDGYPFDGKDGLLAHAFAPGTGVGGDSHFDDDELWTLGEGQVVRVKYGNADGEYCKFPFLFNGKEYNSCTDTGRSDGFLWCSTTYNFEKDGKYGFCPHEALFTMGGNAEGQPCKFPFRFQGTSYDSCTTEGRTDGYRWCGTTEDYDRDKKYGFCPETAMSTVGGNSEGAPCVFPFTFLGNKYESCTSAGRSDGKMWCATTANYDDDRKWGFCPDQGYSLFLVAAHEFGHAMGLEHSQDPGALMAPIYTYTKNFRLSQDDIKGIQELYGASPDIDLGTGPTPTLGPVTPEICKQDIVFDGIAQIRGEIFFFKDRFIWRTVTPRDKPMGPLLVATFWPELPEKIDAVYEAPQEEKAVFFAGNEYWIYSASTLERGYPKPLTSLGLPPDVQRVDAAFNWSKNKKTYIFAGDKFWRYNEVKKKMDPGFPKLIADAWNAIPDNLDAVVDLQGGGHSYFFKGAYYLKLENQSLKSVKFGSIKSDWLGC
Sequence of Mothers against decapentaplegic homolog 2 (Homo sapiens) (Q15796 whole entry): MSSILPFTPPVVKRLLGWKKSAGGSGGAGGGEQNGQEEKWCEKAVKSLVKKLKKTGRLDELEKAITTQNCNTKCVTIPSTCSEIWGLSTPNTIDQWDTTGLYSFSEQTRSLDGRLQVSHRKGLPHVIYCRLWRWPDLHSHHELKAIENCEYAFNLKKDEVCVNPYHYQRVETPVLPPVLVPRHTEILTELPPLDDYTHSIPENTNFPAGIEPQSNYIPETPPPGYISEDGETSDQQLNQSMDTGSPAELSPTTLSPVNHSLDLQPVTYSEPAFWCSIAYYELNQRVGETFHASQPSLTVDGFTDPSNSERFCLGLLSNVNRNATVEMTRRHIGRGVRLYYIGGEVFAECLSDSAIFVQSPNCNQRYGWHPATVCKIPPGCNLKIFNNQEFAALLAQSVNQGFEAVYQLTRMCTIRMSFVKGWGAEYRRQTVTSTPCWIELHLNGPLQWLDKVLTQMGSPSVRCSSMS

**Q.** Which results are given for C[C@@H]1CC[C@@]2(OC1)O[C@H]1C[C@H]3[C@@H]4CC=C5C[C@@H](O[C@@H]6O[C@H](CO)[C@@H](O[C@@H]7O[C@@H](C)[C@H](O)[C@@H](O)[C@H]7O)[C@H](O)[C@H]6O[C@@H]6O[C@@H](C)[C@H](O)[C@@H](O)[C@H]6O)CC[C@]5(C)[C@H]4CC[C@]3(C)[C@H]1[C@@H]2C [DIOSCIN]?
**A.** inhibition (A549 [1]): Active; viability at 0.5 µM (A549 [2]): > 80%; viability at 1 µM (A549 [3]): > 80%; viability at 2 µM (A549 [4]): > 80%; viability at 2.5 µM (A549 [5]): > 80%; viability at 3 µM (A549 [6]): > 80%; growth inhibition (GI) (A549 [7]): Active; inhibition (A549 [8]): Active; inhibition (A549 [9]): Active; inhibition (A549 [10]): Active; inhibition (A549 [11]): Dose-dependent effect; inhibition (A549 [12]): Dose-dependent effect; inhibition (A549 [13]): Dose-dependent effect; inhibition (A549 [14]): Dose-dependent effect; inhibition (A549 [15]): Dose-dependent effect; inhibition (A549 [16]): Dose-dependent effect; inhibition (A549 [17]): Dose-dependent effect; inhibition (A549 [18]): Dose-dependent effect; inhibition (A549 [19]): Dose-dependent effect; inhibition (A549 [20]): Dose-dependent effect; inhibition (A549 [21]): Dose-dependent effect; inhibition (A549 [22]): Dose-dependent effect; inhibition [23]: Active; inhibition [24]: Active; inhibition [25]: Dose-dependent effect; inhibition [26]: Active

Source: ChEMBL document CHEMBL4033741, “Dioscin suppresses TGF-β1-induced epithelial-mesenchymal transition and suppresses A549 lung cancer migration and invasion” (2017)
